Data reported in PubChem BioAssay AID2060513 (Molecular Pharmacology Branch, DTP, NCI, 2025).
Values joined by “and” are separate entries in the source; they are usually repeats but may differ in a detail not shown here. Equal entries are not always repeated.

Tested on: 299254-011-R-J1-PDC complex spheroids viability
Assay: Anticancer human tumor 299254-011-R-J1-PDC patient-derived melanoma cell line growth inhibition [GQUAD]
Settings: for viability, T/C: stronger effect = lower value
Text: DNA G-quadruplex Stabilizer Agents in Combinations in Complex Spheroids
A high-throughput screen of multi-cell type tumor spheroids was designed to identify active combinations of DNA G-quadruplex stabilizer agents and targeted small molecules. Complex spheroids include a stromal component modeled by human endothelial cells (HUVEC) and fibroblasts modeled by human mesenchymal stem cells (MSCs). The concentration ranges selected for each drug and investigational agent were based upon clinically achievable concentrations if the clinical Cmax of the agent was known.
Compounds. The drugs and investigational agents: pidnarulex (CX-5461; NSC782164), APTO-253 (NSC789042), BRACO-19 (NSC847499), peposertib (NSC802822), ceralasertib (NSC780249), elimusertib (NSC800525), camonsertib (NSC841442), AZD-1390 (NSC803789), olaparib (NSC753686), talazoparib (NSC767125), ART-558 (NSC835418), sotorasib (NSC818433), MRTX-1133 (NSC836407), SN-38 (NSC673596), topotecan (NSC609699), etoposide (NSC141540), doxorubicin (NSC123127), gemcitabine (NSC613327), 5-fluorouracil (NSC19893), paclitaxel (NSC125973), vemurafenib (NSC761431), panobinostat (NSC761190), R-306465 (JNJ-16241199; NSC773264), adavosertib (NSC754352), TP-3654 (NSC805149), carboplatin (NSC241240), KSQ-4279 (NSC840948), and staurosporine (NSC755774) were obtained from the National Cancer Institute (NCI) Developmental Therapeutics Program Chemical Repository (34). The FDA-approved anticancer drug set is available from the NCI Developmental Therapeutics Program. […] The stock solutions were prepared in dimethyl sulfoxide (DMSO, Sigma-Aldrich, St. Louis, MO, cat. D2650) at 800-fold the tested concentration and stored at -70 degrees C prior to their use. All drugs and investigational agents were tested over a range starting from a high concentration at or near the clinical Cmax and decreasing in half-log increments. If the clinical Cmax for an agent had not been determined, the highest concentration tested was 10 microM.
2.3 Cell Culture. All cells were maintained in an incubator at 37 degrees C and 5% CO2 with 95% humidity. The PDC lines were cultured according to standard operating procedures established by the NCI PDMR. All PDCs were thawed and cultured in Matrigel-coated flasks prepared with a working solution of 1X Ham's F-12 nutrient mix, without supplementation (Invitrogen, cat. 11765054), 100 U/mL penicillin-streptomycin (Invitrogen, cat. 15140122), and 2.5% Matrigel (Corning Inc., cat. 354248) for the first three passages. The 857933-349-R-J2-PDC line was cultured in 6C/Colon 1B media, which includes advanced DMEM/F-12 (Thermo Fisher Scientific, cat. 12634028), 10 mM HEPES (Thermo Fisher Scientific, cat. 15630080), 1X GlutaMAX supplement (Thermo Fisher Scientific, cat. 35050061), 0.1 mg/mL primocin (InvivoGen, cat. ant-pm-2), 10% defined fetal bovine serum, heat inactivated (HyClone Laboratories Inc., cat. SH30070.03HI), 50% L-WRN conditioned media (ATCC, cat. CRL-3276), 1.25 mM N-Acetyl-L-cysteine (Sigma-Aldrich, cat. A9165), 10 mM nicotinamide (Sigma-Aldrich, cat. N0636), 1X B-27 supplement (Thermo Fisher Scientific, cat. 17504044), 1X N-2 supplement (Thermo Fisher Scientific, cat. 17502048), 10 microM Y-27632 dihydrochloride (Tocris Bioscience, cat. 1254), and 50 ng/mL human EGF recombinant protein (Thermo Fisher Scientific, cat. PHG0311). The 485176-168-R4-J1-PDC line was cultured in Panc media, which includes all 6C/Colon 1B media components plus 100 ng/mL human FGF-10 (Thermo Fisher Scientific, cat. 100-26), 500 nM SB-431542 (Selleckchem, cat. S1067), and gastrin (Tocris, cat. 3006).
[…]
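Note: spheroids exposed to the agents for seven days before readout.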
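Throughout, for viability, T/C: percent viability relative to DMSO vehicle control wells = 100%.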

With `CN(C)c1ccc(Nc2c3ccc(NC(=O)CCN4CCCC4)cc3nc3cc(NC(=O)CCN4CCCC4)ccc23)cc1` the viability, T/C (compound 0.0316 µM) was 95.2% [middle of 12 runs], the viability, T/C (compound 0.316 µM) was 95.5% [middle of 12 runs] and the viability, T/C (compound 3.16 µM) was 106% [middle of 12 runs]. The viability, T/C (compound 10 µM) was 98.3% [middle of 12 runs] and the IC50 (compound alone, run of 02/26/2024) was over 10000 nM.

`COc1cc(C2c3cc4c(cc3C(OC3OC5COC(C)OC5C(O)C3O)C3COC(=O)C23)OCO4)cc(OC)c1O` (stereo not given) was tested, and the viability, T/C (compound 0.0316 µM) was 102% and 90.8% and 122%, the viability, T/C (compound 0.1 µM) was 91.4% and 97.2% and 87.9% and the viability, T/C (compound 0.316 µM) was 85.3% and 106% (2×). The viability, T/C (compound 1 µM) was 97.1% and 91.9% and 92.2%, the viability, T/C (compound 3.16 µM) was 75.5% and 101% and 99% and the viability, T/C (compound 10 µM) was 94.6% and 84.8% and 92.6%. For the same compound, the IC50 (curve of compound) was over 10000 nM.

In the case of `C=CCn1c(=O)c2cnc(Nc3ccc(N4CCN(C)CC4)cc3)nc2n1-c1cccc(C(C)(C)O)n1` + CN(C)c1ccc(Nc2c3ccc(NC(=O)CCN4CCCC4)cc3nc3cc(NC(=O)CCN4CCCC4)ccc23)cc1, the IC50 (curve of first compound, second compound 0.0316 µM) is reported as 999 nM, the IC50 (curve of first compound, second compound 0.1 µM) is reported as 1790 nM and the IC50 (curve of first compound, second compound 0.316 µM) is reported as 1750 nM. For the same compound, the IC50 (curve of first compound, second compound 1 µM) was 2280 nM, the IC50 (curve of first compound, second compound 3.16 µM) was 1970 nM and the IC50 (curve of first compound, second compound 10 µM) was 1680 nM. It also gave a viability, T/C (second compound 0.0316 µM, first compound 0.0316 µM) of 101%, a viability, T/C (second compound 0.0316 µM, first compound 0.1 µM) of 106% and a viability, T/C (second compound 0.0316 µM, first compound 0.316 µM) of 77.8%. For the same compound, the viability, T/C (second compound 0.0316 µM, first compound 1 µM) was 49.7%, the viability, T/C (second compound 0.0316 µM, first compound 3.16 µM) was 46.8% and the viability, T/C (second compound 0.0316 µM, first compound 10 µM) was 31.5%. The viability, T/C (second compound 0.1 µM, first compound 0.0316 µM) was 88.2%, the viability, T/C (second compound 0.1 µM, first compound 0.1 µM) was 94.7% and the viability, T/C (second compound 0.1 µM, first compound 0.316 µM) was 76.6%. It also gave a viability, T/C (second compound 0.1 µM, first compound 1 µM) of 69.6%, a viability, T/C (second compound 0.1 µM, first compound 3.16 µM) of 30.8% and a viability, T/C (second compound 0.1 µM, first compound 10 µM) of 27.3%. The viability, T/C (second compound 0.316 µM, first compound 0.0316 µM) was 92.7%, the viability, T/C (second compound 0.316 µM, first compound 0.1 µM) was 81.2% and the viability, T/C (second compound 0.316 µM, first compound 0.316 µM) was 95.9%. It also gave a viability, T/C (second compound 0.316 µM, first compound 1 µM) of 65.9%, a viability, T/C (second compound 0.316 µM, first compound 3.16 µM) of 34.9% and a viability, T/C (second compound 0.316 µM, first compound 10 µM) of 31.5%. It also gave a viability, T/C (second compound 1 µM, first compound 0.0316 µM) of 120%, a viability, T/C (second compound 1 µM, first compound 0.1 µM) of 99.5% and a viability, T/C (second compound 1 µM, first compound 0.316 µM) of 91.9%. The viability, T/C (second compound 1 µM, first compound 1 µM) was 71.1%, the viability, T/C (second compound 1 µM, first compound 3.16 µM) was 37.4% and the viability, T/C (second compound 1 µM, first compound 10 µM) was 29.6%. The viability, T/C (second compound 3.16 µM, first compound 0.0316 µM) was 92.4%, the viability, T/C (second compound 3.16 µM, first compound 0.1 µM) was 94.5% and the viability, T/C (second compound 3.16 µM, first compound 0.316 µM) was 119%. It also gave a viability, T/C (second compound 3.16 µM, first compound 1 µM) of 75.2%, a viability, T/C (second compound 3.16 µM, first compound 3.16 µM) of 36.2% and a viability, T/C (second compound 3.16 µM, first compound 10 µM) of 28.9%. It also gave a viability, T/C (second compound 10 µM, first compound 0.0316 µM) of 97.5%, a viability, T/C (second compound 10 µM, first compound 0.1 µM) of 115% and a viability, T/C (second compound 10 µM, first compound 0.316 µM) of 92.7%. For the same compound, the viability, T/C (second compound 10 µM, first compound 1 µM) was 67.8%, the viability, T/C (second compound 10 µM, first compound 3.16 µM) was 27.2% and the viability, T/C (second compound 10 µM, first compound 10 µM) was 28.3%.

In the case of `Cc1[nH]c2ccccc2c1CCNCc1ccc(/C=C/C(=O)NO)cc1`, the viability, T/C (compound 0.000999 µM) is reported as 99.9% and 96.8% and 89.5%, the viability, T/C (compound 0.00316 µM) is reported as 87.9% and 114% and 103% and the viability, T/C (compound 0.00999 µM) is reported as 94.2% and 94.3% and 96%. The viability, T/C (compound 0.0316 µM) was 96.9% and 88.8% and 85.4%, the viability, T/C (compound 0.0999 µM) was 60.7% and 72.7% and 67.3% and the viability, T/C (compound 0.316 µM) was 19.8% and 19.1% and 16.6%. For the same compound, the IC50 (curve of compound) was 135 nM and 159 nM and 147 nM.

In the case of `CC(C)n1c(=O)n(C)c2cnc3cc(F)c(-c4ccc(OCCCN5CCCCC5)nc4)cc3c21`, the viability, T/C (compound 0.0316 µM) is reported as 104% and 100% and 97%, the viability, T/C (compound 0.1 µM) is reported as 87.8% and 78.1% and 79% and the viability, T/C (compound 0.316 µM) is reported as 102% and 101% and 90.2%. The viability, T/C (compound 1 µM) was 104% and 76.4% and 83.5%, the viability, T/C (compound 3.16 µM) was 93% and 75% and 78.9% and the viability, T/C (compound 10 µM) was 55.8% and 48.2% and 48.6%. The IC50 (curve of compound) was > 10000 nM and 9520 nM and 9660 nM.

In the case of `Cn1ncnc1[C@H]1c2n[nH]c(=O)c3cc(F)cc(c23)N[C@@H]1c1ccc(F)cc1`, the viability, T/C (compound 0.000999 µM) is reported as 105% (2×) and 104%, the viability, T/C (compound 0.00316 µM) is reported as 103% and 101% and 89.8% and the viability, T/C (compound 0.00999 µM) is reported as 92.7% and 94.7% and 116%. For the same compound, the viability, T/C (compound 0.0316 µM) was 107% and 106% and 84.5%, the viability, T/C (compound 0.0999 µM) was 88.5% and 94.8% and 95.9% and the viability, T/C (compound 0.316 µM) was 125% and 105% and 92.4%. For the same compound, the IC50 (curve of compound) was over 316 nM.
